Key:
M. incognita J2s [1] = assay: Plant protection assay, B. subtilis secreting uNLPs; type: in vivo, Meloidogyne incognita; settings: Fig 4B; peptide secreted by transgenic B. subtilis culture in tomato invasion arena with 500 J2s; control = 100%; mean
Protocol: (§1) Tomato seeds were sterilised with 2.5% NaOCl for 15 minutes, washed 5 times in ddH20 and germinated on 0.5% Murashige and Skoog plates at 23°C. […] Invasion assays were performed by mixing 500 pre-treated M. incognita or G. pallida J2s with agar slurry and a single tomato seedling (2 days post germination) in a 6 well plate. Assays were left at 23°C for 24 hours in the case of M. incognita and at 18°C for 24 hours in the case of G. pallida under a 16 hour light and 8 hour darkness cycle. Seedlings were stained using acid fuschin [69] and the number of nematodes within the roots counted. At least five seedlings were used for M. incognita infections assays, with at least 15 seedlings used for G. pallida infections assays (due to increased variation).
(§2) B. subtilis were grown overnight in LB media containing ampicillin (100 μg/ml) at 37°C with shaking, and harvested in the log phase of growth determined by measuring OD600nm. Five ml of culture at 0.5 OD was spun down and the pellet mixed with 3 ml of agar slurry and 500 J2s from either G. pallida or M. incognita. C. reinhardtii clones were grown at 23°C with shaking, cultures in the log phase were measured at OD750 and 5 ml of culture at 0.5 OD was pelleted by centrifugation. C. reinhardtii pellets were mixed with 3 ml of agar slurry and 500 J2s from either G. pallida or M. incognita. Plant invasion assays were performed as described above. […]

mixed-stage C. elegans = assay: C. elegans chemotaxis assay (non-target); type: in vivo, Caenorhabditis elegans; settings: worms soaked in 100 μM uNLP 24 h, counted after 1 h, 8 replicates
Protocol: C. elegans wild-type N2 Bristol strain were obtained from the C. elegans Genomics Center and maintained on a Escherichia coli (strain OP50) lawn on nematode growth medium (NGM) agar plates (3 g/l NaCl, 17 g/l agar, 2.5 g/l peptone, 5 mg/l cholesterol, 25 mM KH2PO4 (pH 6.0), 1 mM CaCl2, 1 mM MgSO4) at 20°C [70]. Chemotaxis assays were performed in a 9 cm diameter Petri dish on NGM agar which was split into a positive and negative side with a central ‘dead zone’ of 1.5 cm diameter. 100 mixed-staged C. elegans were washed three times in M9 buffer and soaked in 100 μM PPN uNLP, or M9 vehicle control for 24 hours. 2 μl of 50 mM sodium acetate, 0.5% pyrazine, 0.5% benzaldehyde or 0.5% diacetyl was spotted onto the positive side, 2 μl of ddH20 was spotted onto the negative side. Pyrazine, benzaldehyde and diacetyl volatile attractants were assayed immediately whereas the water soluble sodium acetate was assayed 18 hours following addition to the plate. Assays were maintained in the dark at 20°C, and counted after 1 hour. Eight replicates were conducted for each C. elegans attraction assay.

G. pallida J2s = assay: Plant protection assay, C. reinhardtii secreting uNLPs; type: in vivo, Globodera pallida; settings: Fig 4C; peptide secreted by transgenic C. reinhardtii culture in tomato invasion arena with 500 J2s; control = 100%; mean
Protocol: as §1, §2

M. incognita J2s [2] = assay: Serotonin-induced stylet thrusting assay; type: in vivo, Meloidogyne incognita; settings: Fig 1C; J2s incubated in 100 μM uNLP for 24 h; stylet thrusts in 5 mM serotonin, counted 1 min; normalised to control = 100%; mean, at least 30 J2s
[3] = system: S. carpocapsae infective juveniles (IJs); assay: S. carpocapsae host-finding assay (non-target); type: in vivo, Steinernema carpocapsae; settings: Fig 5E; chemotaxis towards insect host Galleria mellonella; 100 IJs incubated 24 h in 100 μM uNLP; n = 5; control 0.2315
Protocol: S. carpocapsae were cultured in Galleria mellonella at 23°C. Infective juveniles (IJs) were collected using a White trap in PBS. Freshly emerged IJs were used for each assay. 100 IJs were incubated for 24 hours in 100 μM of selected uNLPs, and host-finding assays (n = 5) performed as in Morris et al..

SFDSFTGPGFTGLD [Mi-NLP-15b, predicted unamidated NLP perfectly conserved between M. incognita and G. pallida; synthesised, also secreted from transgenic microbes]
% Invasion (M. incognita J2s [1]): 26.63%
CI score (mixed-stage C. elegans; Fig 5A, attractant sodium acetate (50 mM), control 0.4269): 0.3142
CI score (mixed-stage C. elegans; Fig 5B, attractant pyrazine (0.5%), control 0.4904): 0.4959
CI score (mixed-stage C. elegans; Fig 5C, attractant benzaldehyde (0.5%), control 0.7026): 0.7032
CI score (mixed-stage C. elegans; Fig 5D, attractant diacetyl (0.5%), control 0.6638): 0.664
% Invasion (G. pallida J2s): 30.95%
% Thrusting (M. incognita J2s [2]): 129.90%
CI score [3]: 0.2225

— article PMC5344539, “Nematode neuropeptides as transgenic nematicides” (PLoS Pathogens, 2017)
